Structures can show the parent of a compound that is named as a salt.

What all share (type): in vivo
The test system of one data set is freshwater shrimp. Briefly: 10 week shrimp feeding trial with feed additives (phosphate level in tank water, survival). Conditions: for Shrimp survival rate: over 10 weeks of feeding trial, 1.2% additive in diet. An excerpt:
To validate if gluconates can be used as an acidulant additives in fish feed to increase shrimp's digestion and reduce phosphate discharge to aquaculture farm water, freshwater shrimp were fed with 1) regular shrimp diet as a control, 2) the same shrimp diet with 1.2% of an FIA, particularly gluconate, as disclosed herein and 3) the shrimp diet with 1.2% sodium citrate as an additive.
Phosphate reduction was equivalently high level to slightly better than citric acid up to 12.5 wt. %. This functionality of reducing phosphate level in discharged water from aquaculture farms is beneficial with respect to environmental regulations as aquaculture farmers are dealing with and the restrictions on the allowed phosphate level in the discharged water waste from aquaculture farms.

Data set [1] deals with tilapia. Briefly: 2 month tilapia growth trial on soybean meal-based diets (growth, feed conversion, phosphorus discharge). Conditions: additive 0.5 wt. % in diet; for Fecal phosphorus content compared to control diet: feces after 2 months on diets; for Phosphorus discharge (via urine) in the water compared to soybean based control diet: new clean water sampled after 4 hours. An excerpt:
The efficacy of an FIA used as fish feed was investigated. The aim of this study was to assess the efficacy of (i) a feed comprising an FIA of the type disclosed herein (e.g., gluconate) on the growth, phosphorus discharge, biochemical composition and histopathology in tilapia when compared to (ii) a soybean meal-based diet that would have a similar formulation as commercial feeds or (iii) a soybean meal-based diet that includes an FIA of the type disclosed herein or sodium citrate, respectively. Sodium citrate was chosen because this is a competitive chelator and has in the past shown to improve phosphorus utilization/reduce phosphorus discharge in various aquatic animals.
To compare the efficacy of an FIA of the type disclosed herein, a total of 4 isonitrogenous and isolipidic diets were formulated to satisfy the nutritional requirements of tilapia. The crude protein and crude lipid content of the diets were all 32 wt. % and 8 wt. %, respectively. However, the percentages of proteins and supplements were altered to satisfy the aims of this study. Soybean meal was used across all diets. Diet 1 was the control with only soybean meal (cellulose at 0.5 wt. %).
The FIA appeared like packaging peanuts, and thus needed to be ground into a fine powder for the product to be adequately mixed in the diet. All diets were made using a pelleter and the pellets were dried in an oven at 60° C. and stored at −20° C. until use.
A total of 90 all male tilapia were equally distributed among 9 oval polyethylene tanks that ran on a recirculating system. Thus, all the fish shared the same water throughout the 2 month growth trial. After the fish were stocked, of approximately equal size, the tanks were randomly allocated their treatments in triplicate. For the first week, the tilapia were fed the control diet to acclimate them to the experimental conditions and then after a week were hand fed twice daily to apparent satiation on their respective experimental diets.
Throughout the study, excess waste was manually siphoned out of the system and water exchanges were provided weekly. Feed intake was recorded to later calculate the feed conversion ratio. Fish feces were collected, dried and measured for the phosphorus levels after 2 months.
(§1) After 2 months, all the fish were weighed to assess weight gain. Two fish/tank were sampled for liver and intestinal histopathology and the muscle sent out for biochemical analysis. The remaining fish were placed in new clean water and the water was sampled at 4 hours and measured for phosphorus levels mostly derived from urine.

In data set [2] the test system is tilapia. Briefly: Liver and intestinal histopathology of tilapia after 2 months on the diets. To be noted: for Intestinal histopathology / Liver histopathology / hepatic toxicity: additive 0.5 wt. % in diet, hematoxylin and eosin staining. The method, then:
as §1

On to `O=C(O)[C@H](O)[C@@H](O)[C@H](O)[C@H](O)CO` [gluconate], for which the “Phosphate reduction compared to citric acid” value in the data set with freshwater shrimp (1.2% additive in shrimp diet, vs citric acid additive diet) was “up to 12.5 wt. %”. In addition, in the data set on freshwater shrimp (1.2% additive in shrimp diet, vs control diet), the “Phosphate reduction in tank water compared to control (regular shrimp diet)” value was “up to 19 wt. %”. This molecule returned a Shrimp survival rate with freshwater shrimp of 75%. Moreover, in the data set with tilapia [1], the “Fecal phosphorus content compared to control diet” value is reported as “significantly less” and the “Phosphorus discharge (via urine) in the water compared to soybean based control diet” value was “significantly less”. For the same molecule, in the data set with tilapia [2] (0.5 wt. % in diet), the “Overall safety for consumption at the level tested” value was “safe for tilapia consumption”. In addition, in the data set with tilapia [2], the Intestinal histopathology result is “no such adverse effects”. Further, in the data set with tilapia [2] (listed as FIA), the “Liver histopathology / hepatic toxicity” value was “no hepatic toxicity”. Moreover, the “Liver histopathology / hepatic toxicity” value in the data set with tilapia [2] (listed as sugar oxidation product) is “normal sinusoid organization with clear central veins and intact and well dispersed pancreatic islets”.

As to `O=C(O)CC(O)(CC(=O)O)C(=O)O` [sodium citrate, reference compound], the Shrimp survival rate in the data set on freshwater shrimp is on record as 58%. Also, in the data set with tilapia [1], the “Fecal phosphorus content compared to control diet” value is given as “significantly less” and the “Phosphorus discharge (via urine) in the water compared to soybean based control diet” value is “significantly less”. For the same molecule, in the data set on tilapia [2], the Intestinal histopathology entry is “inflammation of the intestinal villi and goblet cell hyperplasia”; the “Liver histopathology / hepatic toxicity” value is “varying degrees of hepatic lesions”. Also, the “Liver histopathology / hepatic toxicity” value in the data set on tilapia [2] (listed as Sodium citrate) was “hepatic toxicity based on both mild effects (localized inflammation) to severe (extensive necrosis, vacuolization and hemorrhaging)”. The Intestinal histopathology entry in the data set with tilapia [2] (listed as citrate) was “severe inflammation in goblet cell (gc) and the lamina propria (lp)”.

The values are drawn from patent publication US20260206796A1, “FEED COMPOSITIONS” (Solugen, Inc., priority 2023, published 2026).
